Source: US9655846B2, “Methods for the preparation of liposomes comprising drugs” (priority 2009, dated 2017)

Columns and labels:
[1] = Stability upon dilution or storage, by reverse phase HPLC; type: physicochemical; details: for time docetaxel remained soluble and formulation stable upon dilution: RP-HPLC
Method: Docetaxel (5 mg) was added to 31 μL of oleic acid and mixed using a VORTEX®. Ethanolamine (6 μL) was subsequently added and mixed using a VORTEX®. After mixing, the sample was dispersed in 963 μL of water for injection. Docetaxel was soluble and the formulation clear at 5 mg/mL. Docetaxel remained soluble, and the formulation was stable, upon dilution (1:10 in 2.5% glycerol) up to 24 hours as analyzed by a reverse phase high performance liquid chromatography method.
(§1) Docetaxel (5.0 mg) was added to 1 mL of 0.05 M sodium oleate and mixed using a VORTEX®. Docetaxel was soluble and the formulation clear at 5.0 mg/mL. Docetaxel remained soluble, and the formulation was stable, upon dilution (1:10 in 2.5% glycerol) up to 24 hours as analyzed by a reverse phase high performance liquid chromatography method.
as §1, with “(2” for “(5.0”, “1” for “0.05”, “caprylate” for “oleate”, “by” for “using”, “2” for “5.0”, “(1:2” for “(1:10 in”
as §1, with “(7.0” for “(5.0”, “1” for “0.05”, “linoleate” for “oleate”, “7.0” for “5.0”, “(1:10” for “(1:10 in”
Docetaxel (5 mg) was added to 1 mL of pre-made liposome containing 2 mM sodium oleate and 6% soy phosphatidyl choline, 10% trehalose, pH adjusted to 5-7 using Acetic acid, mixed using a VORTEX®, and microfluidized using a Microfluidizer with 10 passes at 15,000 psi. Five additional passes with the Microfluidizer at 15,000 psi were made to incorporate all 5 mg of the drug into 1 mL of pre-made liposome. Docetaxel was soluble and the formulation was transparent at 5 mg/mL. Docetaxel remained soluble, and the formulation was stable, upon dilution (1:10 in D5W) up to 48 hours as analyzed by a reverse phase high performance liquid chromatography method.
Hydrophobic or lipophilic compounds can be solubilized directly in sodium (or any ion) salt of fatty acid dissolved in an organic solvent. The organic solvent is subsequently removed using rotary evaporation, spray drying, or any other pharmaceutically acceptable processes. The drug-sodium salt of fatty acid mixture is subsequently dispersed in water, isotonic glycerol, or any pharmaceutically acceptable isotonic solution to achieve a desired concentration of the solubilized compound. For example, docetaxel (5 mg/mL) was dissolved in 100 mM sodium oleate in 100% ethanol. Ethanol was completely evaporated using rotary evaporation at 20° C. The docetaxel-sodium oleate was reconstituted with Water For Injection (“WFI”) or 2.5% glycerol to provide 5 mg/mL, 10 mg/mL, or 20 mg/mL concentration of docetaxel.
50 μl of Docetaxel in ethanol (100 mg/mL) was added to 1 mL of pre-made liposome containing 2 mM sodium oleate and 6% soy phosphatidyl choline, 10% trehalose and pH adjusted to 5-7 using Acetic acid, mixed using a VORTEX® and microfluidized using a Microfluidizer with 10 passes at 15,000 psi. Docetaxel was soluble and the formulation is transparent at 5 mg/mL. Docetaxel remained soluble, and the formulation was stable, upon dilution (1:10 in D5W) up to 48 hours as analyzed by a reverse phase high performance liquid chromatography method. […] The lyophilized product is reconstituted with water for injection at 5 mg, 10, or 20 mg/ml, concentration, essentially free of organic solvent.

[2] = Incorporation of docetaxel into liposome; type: physicochemical; details: docetaxel added after liposome preparation vs conventional process
Method: As provided herein, the sequence of the addition of docetaxel results in enhanced solubility of the docetaxel. The conventional method of incorporating a hydrophobic drug into liposome is by adding the drug to lipid before liposome preparation. See, e.g., Immordino, M. L. et al., Journal of Controlled Release, 2003, 91: 417-429. By the conventional process, the incorporation of the drug is only 0.3 to 0.7 mg/mL. When docetaxel is added after liposome preparation, the incorporation of docetaxel is increased from 0.3 mg/mL to 5 mg/mL, which is more than 10 fold increase in solubility of the drug in lipid alone.
In the conventional liposome preparation, the drug to lipid molar percent ratio is 4-6% with the incorporation of drug into liposome efficiency is only 56%. See Immordino, M. L. et al., Journal of Controlled Release, 2003, 91: 417-429.

## CC(=O)O[C@@]12CO[C@@H]1C[C@H](O)[C@@]1(C)C(=O)[C@H](O)C3=C(C)[C@@H](OC(=O)[C@H](O)[C@@H](NC(=O)OC(C)(C)C)c4ccccc4)C[C@@](O)([C@@H](OC(=O)c4ccccc4)[C@H]21)C3(C)C [Docetaxel, docetaxel]
[1]; Example 6 oleic acid formulation, dilution 1:10 in 2.5% glycerol
  time docetaxel remained soluble and formulation stable upon dilution: up to 24 hours
[1]; Example 7 sodium oleate formulation, dilution 1:10 in 2.5% glycerol
  time docetaxel remained soluble and formulation stable upon dilution: up to 24 hours
[1]; Example 8 sodium caprylate formulation, dilution 1:2 2.5% glycerol
  time docetaxel remained soluble and formulation stable upon dilution: up to 24 hours
[1]; Example 9 sodium linoleate formulation, dilution 1:10 2.5% glycerol
  time docetaxel remained soluble and formulation stable upon dilution: up to 24 hours
[1]; Example 10 oleate liposome formulation, dilution 1:10 in D5W
  time docetaxel remained soluble and formulation stable upon dilution: up to 48 hours
[1]; Example 10 oleate liposome formulation
  stability of the lyophilized formulation: stable for more than a year
[1]; Example 11: docetaxel-sodium oleate reconstituted with WFI or 2.5% glycerol to 5, 10 or 20 mg/mL
  time reconstituted docetaxel remained in solution: remained in solution for 2 hours, 4 hours, 6 hours, 8 hours or 24 hours
[1]; Example 12 nanosome-oleate formulation, dilution 1:10 in D5W
  time docetaxel remained soluble and formulation stable upon dilution: up to 48 hours
[1]; Example 12 nanosome-oleate formulation
  stability of the lyophilized formulation: stable for more than a year
[2]
  increase in solubility of the drug over lipid alone: more than 10 fold
